Biological target: T1, Zcchc11 enzyme (Homo sapiens, UniProt Q5TAX3)
T1 construct: made in house; host or cells: HEK293 cells (Zcchc11); E. coli Rosetta II (LIN28A)
T1 sequence (Q5TAX3 212-1420): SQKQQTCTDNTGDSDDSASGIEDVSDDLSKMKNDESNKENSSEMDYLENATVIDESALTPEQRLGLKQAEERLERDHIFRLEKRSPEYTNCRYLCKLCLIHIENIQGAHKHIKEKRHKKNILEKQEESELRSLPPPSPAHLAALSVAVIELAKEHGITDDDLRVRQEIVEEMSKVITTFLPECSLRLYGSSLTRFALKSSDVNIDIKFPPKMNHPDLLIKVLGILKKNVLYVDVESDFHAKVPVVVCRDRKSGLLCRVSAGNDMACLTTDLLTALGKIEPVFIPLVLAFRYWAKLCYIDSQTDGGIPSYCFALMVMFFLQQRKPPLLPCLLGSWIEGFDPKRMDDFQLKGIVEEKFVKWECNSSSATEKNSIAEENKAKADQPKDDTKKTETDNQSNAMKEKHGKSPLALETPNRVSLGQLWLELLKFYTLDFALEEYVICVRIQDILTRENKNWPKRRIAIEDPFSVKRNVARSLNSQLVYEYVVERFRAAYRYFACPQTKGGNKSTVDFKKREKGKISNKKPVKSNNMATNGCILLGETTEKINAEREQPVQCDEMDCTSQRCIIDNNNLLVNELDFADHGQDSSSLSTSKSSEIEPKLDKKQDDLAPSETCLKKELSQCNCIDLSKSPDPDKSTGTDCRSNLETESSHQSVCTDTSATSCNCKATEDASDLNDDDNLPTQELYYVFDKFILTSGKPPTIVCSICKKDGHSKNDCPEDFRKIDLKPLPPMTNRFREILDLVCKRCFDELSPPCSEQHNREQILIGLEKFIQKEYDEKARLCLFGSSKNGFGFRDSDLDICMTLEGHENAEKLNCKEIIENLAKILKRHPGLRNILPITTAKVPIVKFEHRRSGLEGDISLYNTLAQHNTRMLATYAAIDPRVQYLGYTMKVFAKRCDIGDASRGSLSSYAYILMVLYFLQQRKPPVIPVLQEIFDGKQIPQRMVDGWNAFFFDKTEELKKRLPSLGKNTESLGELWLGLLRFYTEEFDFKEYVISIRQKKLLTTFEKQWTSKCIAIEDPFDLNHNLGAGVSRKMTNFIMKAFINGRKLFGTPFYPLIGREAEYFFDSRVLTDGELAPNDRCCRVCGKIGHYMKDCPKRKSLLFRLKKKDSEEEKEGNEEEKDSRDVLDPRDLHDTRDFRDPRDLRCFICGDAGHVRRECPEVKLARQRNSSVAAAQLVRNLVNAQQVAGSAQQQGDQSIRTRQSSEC
Test: TUTase assay (Zcchc11 assay, Lin28a-dependent polyuridylation of pre-let-7)
Assay type: biochemical
Settings: LIN28A 10 nM, Zcchc11 0.2 nM, 5′-fluorescein pre-let-7 miRNA 2 nM, UTP 5 uM, room temperature, 30 minutes pre-incubation; read-out: Potency Lin28a-dep Z11 IC50
Procedure, shortened: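 LIN28A (10 nM) in pH 7.3 HEPES/KCl/MgCl2/DTT buffer was mixed with serially diluted compound, then 0.2 nM truncated human Zcchc11 and 2 nM labeled pre-let-7 were added for 30 min at room temperature. UTP (5 uM) and quench probe (4 nM) then started the reaction. Linear early rates gave IC50 values.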

Row | IC50 [µM] | SMILES
1 | > 50 | COc1c(N2CCC[C@@H]2COc2ccccn2)c(F)cc2c(=O)c(C(=O)O)cn(C3CC3)c12 [Example 3, (R)-1-cyclopropyl-6-fluoro-8-methoxy-4-oxo-7-(2-((pyridin-2-yloxy)methyl)pyrrolidin-1-yl)-1,4-dihydroquinoline-3-carboxylic acid]
2 | ≤ 1 | O=C(O)c1cn(-c2ccc(O)cc2)c2cc(N3CCC[C@@H]3COc3cc4[nH]ccc4cn3)c(F)cc2c1=O [Example 12, (R)-7-(2-(((1H-pyrrolo[3,2-c]pyridine-6-yl)oxy)methyl)pyrrolidin-1-yl)-6-fluoro-1-(4-hydroxyphenyl)-4-oxo-1,4-dihydroquinoline-3-carboxylic acid]
3 | 10 to 50 | CN(C)C1CN(c2ccc(-n3cc(C(=O)O)c(=O)c4cc(C#N)c(N5C(=O)CC[C@@H]5COc5ncccc5Cl)cc43)cn2)C1 [Example 54, (R)-7-(2-(((3-chloropyridin-2-yl)oxy)methyl)-5-oxopyrrolidin-1-yl)-6-cyano-1-(6-(3-(dimethylamino)azetidin-1-yl)pyridin-3-yl)-4-oxo-1,4-dihydroquinoline-3-carboxylic acid]
4 | ≤ 1 | O=C(O)c1cn(-c2cc3n(n2)CCOC3)c2cc(N3CCC[C@@H]3COc3ncccc3Cl)c(Cl)cc2c1=O [Example 76, (R)-6-chloro-7-(2-(((3-chloropyridin-2-yl)oxy)methyl)pyrrolidin-1-yl)-1-(6,7-dihydro-4H-pyrazolo[5,1-c][1,4]oxazin-2-yl)-4-oxo-1,4-dihydroquinoline-3-carboxylic acid]
5 | ≤ 1 | CC1CCN(c2cc3c(cc2Cl)c(=O)c(C(=O)O)cn3-c2ccnc(N)c2)[C@H]1COc1nc(N(C)C)ccc1Cl (stereo partly drawn) [Example 65, 1-(2-aminopyridin-4-yl)-6-chloro-7-[(2R)-2-({[3-chloro-6-(dimethylamino)pyridin-2-yl]oxy}methyl)-3-methylpyrrolidin-1-yl]-4-oxoquinoline-3-carboxylic acid]

Same assay, conditions: Lin28a-dependent Zcchc11 (Z11) TUTase activity; read-out: Potency Lin28a-dep Z11 IC50

Row | IC50 [µM] | SMILES
6 | ≤ 1 | COCCOc1ccc(-n2cc(C(=O)O)c(=O)c3cc(F)c(N4CCC[C@@H]4COc4ncccc4C)cc32)cc1 [Compound 124, (R)-6-fluoro-1-(4-(2-methoxyethoxy)phenyl)-7-(2-(((3-methylpyridin-2-yl)oxy)methyl)pyrrolidin-1-yl)-4-oxo-1,4-dihydro-quinoline-3-carboxylic acid]
7 | ≤ 1 | CN(C)C1CN(c2ccc(-n3cc(C(=O)O)c(=O)c4cc(F)c(N5CC(c6cccnc6)C[C@@H]5COc5ncccc5Cl)cc43)cn2)C1 (single isomer, unassigned) [Compound 328]
8 | ≤ 1 | COCCN(C)C1CN(c2ccc(-n3cc(C(=O)O)c(=O)c4cc(F)c(N5CC(c6cccnc6)C[C@@H]5COc5ncccc5Cl)cc43)cn2)C1 (stereo partly drawn) [Compound 326, 7-[(2R)-2-[[(3-Chloropyridin-2-yl)oxy]methyl]-4-(pyridin-3-yl)pyrrolidin-1-yl]-6-fluoro-1-(6-[3-[(2-methoxyethyl) (methyl)amino]azetidin-1-yl]pyridin-3-yl)-4-oxoquinoline-3-carboxylic acid]
9 | ≤ 1 | Cc1ccc(Cl)c(OC[C@H]2CCCN2c2cc3c(cc2Cl)c(=O)c(C(=O)O)cn3-c2ccc(N3CC(N(C)C)C3)nc2)n1 (racemic) [Compound 187, rac-(R)-6-chloro-7-(2-(((3-chloro-6-methylpyridin-2-yl)oxy)methyl)pyrrolidin-1-yl)-1-(6-(3-(dimethyl-amino)azetidin-1-yl)pyridin-3-yl)-4-oxo-1,4-dihydro-quinoline-3-carboxylic acid]
10 | > 50 | O=C(O)c1cn(-c2ccc(Cl)c(O)c2)c2cc(N3CCC[C@@H]3COc3ncccc3Cl)ccc2c1=O [Compound 171, (R)-1-(4-chloro-3-hydroxy-phenyl)-7-(2-(((3-chloropyridin-2-yl)oxy)methyl)pyrrolidin-1-yl)-4-oxo-1,4-dihydro-quinoline-3-carboxylic acid]
11 | ≤ 1 | Cc1cc2c(=O)c(C(=O)O)cn(-c3ccnc(N)c3)c2cc1N1CCC[C@@H]1COc1ncccc1Cl [Compound 297, (R)-1-(2-aminopyridin-4-yl)-7-(2-(((3-chloropyridin-2-yl)oxy)methyl)pyrrolidin-1-yl)-6-methyl-4-oxo-1,4-dihydro-quinoline-3-carboxylic acid]
12 | ≤ 1 | N#Cc1cc2c(=O)c(C(=O)O)cn(-c3ccc(N)nc3)c2cc1N1CCC[C@@H]1COc1ncccc1F [Compound 217]
13 | 1 to 10 | O=C(O)c1cn(-c2ccc(O)cc2F)c2c(F)c(N3CCC[C@@H]3COc3ccccn3)c(F)cc2c1=O [Compound 80, (R)-6,8-difluoro-1-(2-fluoro-4-hydroxy-phenyl)-4-oxo-7-(2-((pyridin-2-yloxy)methyl)pyrrolidin-1-yl)-1,4-dihydro-quinoline-3-carboxylic acid]
14 | ≤ 1 | Cc1ccc(F)c(OC[C@H]2C[C@H]3C[C@H]3N2c2cc3c(cc2Cl)c(=O)c(C(=O)O)cn3-c2ccc(N(C)C)nc2)n1 [Compound 343, 6-Chloro-1-[6-(dimethyl-amino)pyridin-3-yl]-7-[(1R,3R,5R)-3-{[(3-fluoro-6-methylpyridin-2-yl)oxy]methyl}-2-azabicyclo [3.1.0]hexan-2-yl]-4-oxoquinoline-3-carboxylic acid]
15 | ≤ 1 | COc1ccc(Cl)c(OC[C@H]2CC(c3ccc(O)nc3)CN2c2cc3c(cc2F)c(=O)c(C(=O)O)cn3-c2ccc(N3CC(N(C)C)C3)nc2)n1 (mixture of isomers) [Compound 224, Formic acid compound with rac-7-((2R)-2-(((3-chloro-6-methoxy-pyridin-2-yl)oxy)methyl)-4-(6-hydroxy-pyridin-3-yl)pyrrolidin-1-yl)-1-(6-(3-(dimethyl-amino)azetidin-1-yl)pyridin-3-yl)-6-fluoro-4-oxo-1,4-dihydro-quinoline-3-carboxylic acid (1:1)]

Same assay, conditions: Lin28a-dependent Zcchc11 (Z11) TUTase assay; read-out: Potency Lin28a-dep Z11 IC50

Row | IC50 [µM] | SMILES
16 | ≤ 1 | CN(C)CCNc1ccc(-n2cc(C(=O)O)c(=O)c3cc(Cl)c(N4CCC[C@@H]4COc4ncccc4Cl)cc32)cn1 [Example 416, (R)-6-chloro-7-(2-(((3-chloropyridin-2-yl)oxy)methyl)pyrrolidin-1-yl)-1-(6-((2-(dimethylamino)ethyl)amino)pyridin-3-yl)-4-oxo-1,4-dihydroquinoline-3-carboxylic acid]
17 | ≤ 1 | Cc1cccnc1OC[C@H]1CCCN1c1cc2c(cc1F)c(=O)c(C(=O)O)cn2-c1ccc2[nH]c(=O)[nH]c2c1 [Example 443, (R)-6-fluoro-7-(2-(((3-methylpyridin-2-yl)oxy)methyl)pyrrolidin-1-yl)-4-oxo-1-(2-oxo-2,3-dihydro-1H-benzo[d]imidazol-5-yl)-1,4-dihydroquinoline-3-carboxylic acid]
18 | ≤ 1 | CN(C)C1CN(c2ccc(-n3cc(C(=O)O)c(=O)c4cc(C#N)c(N5CCC[C@]5(C)COc5ncccc5F)cc43)cn2)C1 [Example 687, (R)-6-cyano-1-(6-(3-(dimethylamino)azetidin-1-yl)pyridin-3-yl)-7-(2-(((3-fluoropyridin-2-yl)oxy)methyl)-2-methylpyrrolidin-1-yl)-4-oxo-1,4-dihydroquinoline-3-carboxylic acid]
19 | ≤ 1 | O=C(O)c1cn(-c2ccc3[nH]ccc3c2F)c2cc(N3CCC[C@@H]3COc3ccccn3)c(F)cc2c1=O [Example 438, (R)-6-fluoro-1-(4-fluoro-1H-indol-5-yl)-4-oxo-7-(2-((pyridin-2-yloxy)methyl)pyrrolidin-1-yl)-1,4-dihydroquinoline-3-carboxylic acid]
20 | ≤ 1 | COc1ccc(Cl)c(OC[C@H]2CCCN2c2cc3c(cc2F)c(=O)c(C(=O)O)cn3-c2cnnc(N)c2)n1 [Example 646, (R)-1-(6-aminopyridazin-4-yl)-7-(2-(((3-chloro-6-methoxypyridin-2-yl)oxy)methyl)pyrrolidin-1-yl)-6-fluoro-4-oxo-1,4-dihydroquinoline-3-carboxylic acid]

Source: patent publication US12662491B2 (Redona Therapeutics, Inc., priority 2020, dated 2026)
